Experimental data: US5385831A, “Method for producing a mammalian G protein coupled glutamate receptor” (priority 1993, dated 1995)

What was measured:
[1] = system: glutamate G protein coupled receptor; test: Voltage-clamp assay of antagonist inhibition of glutamic acid-evoked current in injected oocytes; type: cell-based, rat; conditions: 1 mM DL-AP3
Method: Voltage clamp assays were also carried out on injected oocytes to measure the inhibition by the putative glutamate G protein coupled receptor antagonist, 2-amino-3-phosphonopropionic acid (AP3).

[2] = target: T1, GluG R encoded by clone 45-A (Rattus norvegicus, UniProt P23385); test: Voltage-clamp assay of L-glutamic acid analogs at saturating concentrations in injected oocytes; type: cell-based; parameters: expressed in transfected cells; host or cells: Xenopus oocytes injected with in vitro transcribed (T7, pVEGT') clone 45-A RNA
T1 sequence (P23385 19-1199): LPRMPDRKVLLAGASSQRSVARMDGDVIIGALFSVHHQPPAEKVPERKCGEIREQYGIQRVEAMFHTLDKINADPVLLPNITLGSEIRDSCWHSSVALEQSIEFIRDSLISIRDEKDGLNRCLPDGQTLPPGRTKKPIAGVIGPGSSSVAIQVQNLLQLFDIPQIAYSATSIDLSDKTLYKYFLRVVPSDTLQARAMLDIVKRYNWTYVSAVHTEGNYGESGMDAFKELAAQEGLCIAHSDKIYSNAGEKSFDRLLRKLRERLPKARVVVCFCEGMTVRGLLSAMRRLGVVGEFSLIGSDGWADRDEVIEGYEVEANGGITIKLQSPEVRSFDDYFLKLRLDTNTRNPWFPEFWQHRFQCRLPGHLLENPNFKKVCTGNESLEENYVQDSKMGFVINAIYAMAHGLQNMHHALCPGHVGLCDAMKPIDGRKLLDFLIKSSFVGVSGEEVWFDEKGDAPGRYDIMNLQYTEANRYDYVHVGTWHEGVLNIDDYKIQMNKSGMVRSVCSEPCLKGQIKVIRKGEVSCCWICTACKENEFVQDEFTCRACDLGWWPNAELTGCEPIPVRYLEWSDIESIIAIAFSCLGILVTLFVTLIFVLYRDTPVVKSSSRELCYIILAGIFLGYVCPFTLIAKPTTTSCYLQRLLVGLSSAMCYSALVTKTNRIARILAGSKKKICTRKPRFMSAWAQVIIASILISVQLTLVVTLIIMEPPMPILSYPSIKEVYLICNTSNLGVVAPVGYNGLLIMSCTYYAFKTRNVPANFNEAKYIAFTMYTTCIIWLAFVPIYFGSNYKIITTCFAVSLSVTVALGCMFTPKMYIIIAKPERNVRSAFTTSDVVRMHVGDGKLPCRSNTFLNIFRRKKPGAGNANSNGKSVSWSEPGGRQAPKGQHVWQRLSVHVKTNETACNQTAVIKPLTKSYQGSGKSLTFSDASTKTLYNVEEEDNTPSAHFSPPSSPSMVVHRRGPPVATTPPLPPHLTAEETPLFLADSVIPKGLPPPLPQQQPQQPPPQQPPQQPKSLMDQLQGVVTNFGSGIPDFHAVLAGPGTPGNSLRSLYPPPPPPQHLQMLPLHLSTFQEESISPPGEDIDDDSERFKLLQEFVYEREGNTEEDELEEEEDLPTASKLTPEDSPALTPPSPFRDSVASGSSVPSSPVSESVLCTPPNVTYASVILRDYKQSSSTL

[3] = target: T1, GluG R encoded by clone 45-A; conditions: read-out: Glutamate Analog Potencies (EC50); Xenopus oocytes injected with 45-A RNA; responses normalized to subsequent response to 100 μM L-glutamic acid
GluG R = test: Voltage-clamp assay of oocytes injected with RNA from rat cerebellum cDNA library pools; type: cell-based
Method: Plasmid DNA prepared from each of the 10 pools of 100,000 clones, which in total represented one sublibrary of one million clones of the cerebellum cDNA library, was purified by cesium chloride gradient ultracentrifugation. The DNA was transcribed in vitro with T7 RNA polymerase (Pharmacia) in the presence of capped nucleotide (GpppG, Pharamcia). […] The transcription reaction tubes were set up by adding 12 μl of 5× transcription buffer (Stratagene Cloning Systems, La Jolla, Calif.), 3 μl each of 10 mM ATP, CTP, GTP, and UTP, 6 μl of 10 mM GpppG (Pharmacia), 6 μl of 1 mg/ml BSA, 3 μl of 200 mM DTT, 1.5 μl of 40 U/μl RNasin (ProMega Biotech, Madison, Wis.), 8.5 μl of water, 10 μl of cDNA containing 5 to 10 μg DNA, and 1 μl of 70 U/μl T7 RNA polymerase. […] Forty microliters of water was added to the radiolabeled reactions, and 1 μl was removed from each sample and counted to determine total counts. […] The samples were centrifuged to collect the RNA and the RNA pellets were counted to determine the counts incorporated into RNA. […]
The RNA from each of the 10 sublibraries were injected into oocytes as described above and translation was allowed for four days. Expression of GluG R activity was assessed by voltage-clamp assay as described above. […]

## NC(CP(=O)(O)O)C(=O)O (racemic) [DL-AP3, 2-amino-3-phosphonopropionic acid]
[1]
  current evoked by 10 μM glutamic acid, reduced to % of the control: 59.3±7.3%

## Cc1onc(O)c1CC(N)C(=O)O (stereo not drawn) [AMPA, α-amino-3-hydroxy-5-methyl-isoxazole-4-propionic acid]
[2]; 100 μM
  response normalized to a subsequent response to 100 μM L-glutamate (effective/ineffective): ineffective

## NC(CCP(=O)(O)O)C(=O)O (stereo not drawn) [APB, 2-amino-4-phosphonobytyric acid]
[2]; 100 μM
  response normalized to a subsequent response to 100 μM L-glutamate (effective/ineffective): ineffective

## N[C@H](C(=O)O)c1cc(=O)[nH]o1 [Ibotenic acid, ibotenic acid]
[3]
  EC50: 32.4 µM

## CN[C@H](CC(=O)O)C(=O)O [NMDA, N-methyl-D-aspartic acid]
[2]; 100 μM NMDA + 10 μM glycine
  response normalized to a subsequent response to 100 μM L-glutamate (effective/ineffective): ineffective

## N[C@@H](Cn1oc(=O)[nH]c1=O)C(=O)O [Quisqualic acid, quisqualic acid]
GluG R; oocyte injected with approximately 100 ng RNA from subfractionated pool of 14,000 colonies, estimated from a digital panel meter
  peak current in response to quisqualate: approximately 1300 nA
GluG R; sublibrary pool Z93-1.9 (100,000 clones)
  signal with administration of quisqualate to the oocyte: produced a signal

## N[C@@H](CC(=O)O)C(=O)O [aspartic acid]
[2]; 1 mM
  response normalized to a subsequent response to 100 μM L-glutamate (effective/ineffective): ineffective

## C=C(C)[C@H]1CN[C@H](C(=O)O)[C@H]1CC(=O)O [kainic acid]
[2]; 1 mM
  response normalized to a subsequent response to 100 μM L-glutamate (effective/ineffective): ineffective
